One data set has as its system Cavia porcellus. Kind of data set: Effect on Aerosolized Antigen Induced Airway Obstruction (AAIAO) in guinea pig after oral dose. The data set is classed as functional.
Data set [1] addresses Phosphodiesterase 3 (Homo sapiens) (UniProt Q14432+Q13370). Nature of the data set: Inhibition of PDE3 from human heart at 100 uM. The data set is classed as protein assay.
For data set [2], the target named is Phosphodiesterase 1 (Homo sapiens) (UniProt P54750+Q01064+Q14123). Nature of the data set: Inhibition of Phosphodiesterase 1 from human cardiac ventricle at 10 uM. The data set is classed as protein assay.
Data set [3] addresses cGMP-specific 3',5'-cyclic phosphodiesterase (Homo sapiens) (UniProt O76074). Nature of the data set: Inhibition of Phosphodiesterase 5 from human corpus cavernosum at 1 uM.
For data set [4] the target is unchanged. Kind of data set: Inhibition of Phosphodiesterase 5 from human corpus cavernosum at 10 uM.
The target of another data set is Phosphodiesterase 4 (Homo sapiens, UniProt P27815+Q08499+Q07343+Q08493). Kind of data set: Inhibitory activity on human eosinophil phosphodiesterase 4. Format: protein assay.
The subject of another data set is U-937. Kind of data set: Arbitary maximal response for cAMP elevation from baseline level was evaluated in Human U-937 cells. Format: functional, cell-based.
Data set [5] can be described thus: Compound tested for plasma levels in monkeys dosed at 10 mg/kg, po. The settings on record: monkey, in vivo, read-out: Plasma level. Set-up: dose 10 mg/kg, route oral. Format: ADME, organism-based.
The test system of data set [6] is Monkey. Nature of the data set: Percent Eosinophil inhibition in monkeys at 10 mg/kg oral dose. The data set is classed as functional. The settings on record: Cercopithecidae, in Primates.
The subject of data set [7] is Monkey. Kind of data set: Percent cytokine inhibition in monkeys at 10 mg/kg oral dose. The data set is classed as functional. The settings on record: Cercopithecidae, in Primates.
Data set [8] deals with Monkey. Nature of the data set: Percent cytokine IL-8 inhibition in monkeys at 10 mg/kg oral dose. The settings on record: Cercopithecidae, in Primates. Format: functional.
The subject of data set [9] is Monkey. Kind of data set: Percent cytokine TNF inhibition in monkeys at 10 mg/kg oral dose. The data set is classed as functional. The settings on record: Cercopithecidae, in Primates.

SMILES strings stand for the structures.

The term ED50 denotes the midpoint of the dose-response relation. Usually inhibition stands for the relative decrease from the control value, in per cent. Broadly, the IC50 is the concentration that gives 50% inhibition. For orientation: EC50 means the midpoint of the concentration-response curve. `CCc1nn(-c2ccc(F)cc2)c2c1CCN(c1ccccc1)C2=O`: the 50% effective dose (ED50) in the data set on Cavia porcellus was 4.3 mg/kg. The inhibition is 33% in data set [1], 2% in data set [2], 1% in data set [3] and 50% in data set [4]. This compound also had an IC50 against Phosphodiesterase 4 of 1.64 µM. For the same compound, the concentration giving a half-maximal response (EC50) with U-937 was determined as 0.88 µM.

As to `CCCCc1nn(-c2ccc(F)cc2)c2c1CCN(c1ccccc1)C2=O`, the IC50 at Phosphodiesterase 4 was 84.7 µM. Further, in the data set with U-937, the EC50 worked out at 13 µM.

Compound `CCc1nn(C2CCCC2)c2c1CCN(c1cccc(Cl)c1)C2=O` yielded an IC50 on Phosphodiesterase 4 of 0.039 µM. Also, it took 0.041 µM to reach a half-maximal effect with U-937 (EC50).

The compound `CCc1nn(-c2ccc(F)cc2)c2c1CCN(c1cccc(C)c1)C2=O` had a half-inhibitory concentration (IC50) against Phosphodiesterase 4 of 0.27 µM. In the data set on U-937, this compound registered an EC50 of 0.78 µM.

On Phosphodiesterase 4, `CCc1nn(-c2ccc(F)cc2)c2c1CCN(c1ccccc1OC)C2=O` yielded a concentration for half-maximal inhibition (IC50) of 1.08 µM. Besides, in the data set on U-937, the EC50 was determined as 3.21 µM.

`CCc1nn(-c2ccc(F)cc2)c2c1CCN(c1ccc(C)cc1)C2=O` came in with a half-maximal inhibitory concentration (IC50) at Phosphodiesterase 4 of 2.24 µM. This compound also showed a concentration giving a half-maximal response (EC50) in the data set with U-937 of 0.5 µM.

On to `COc1ccc(C(=O)Nc2c(Cl)cncc2Cl)cc1OC1CCCC1`, for which, in the data set with U-937, it took 0.04 µM to reach a half-maximal effect (EC50).

Turning to `CCc1nn(C2CCCC2)c2c1CCN(c1cccc(OC)c1)C2=O`, the concentration for half-maximal inhibition (IC50) on Phosphodiesterase 4 amounted to 0.034 µM. In the data set on U-937, this compound returned a concentration giving a half-maximal response (EC50) of 0.33 µM.

As for `CCCc1nn(-c2ccc(F)cc2)c2c1CCN(c1ccc(OC)cc1)C2=O`, the IC50 at Phosphodiesterase 4 turned out to be 84.9 µM. In the data set with U-937, this compound yielded an EC50 of 11 µM.

On to `CCc1nn(-c2ccc(F)cc2)c2c1CCN(c1ccccc1C)C2=O`, for which, at Phosphodiesterase 4, the IC50 was 0.89 µM.

For `CCc1nn(-c2ccc(F)cc2)c2c1CCN(c1cccc(OC)c1)C2=O`, the half-maximal inhibitory concentration (IC50) on Phosphodiesterase 4 came to 0.49 µM.

For orientation: inhibition in vivo means the percentage by which the read-out fell short of the control. As for `CCc1nn(C2CCCC2)c2c1CCN(c1ccccc1C)C2=O`, the concentration in data set [5] is 0.28 µM. In the data set with Cavia porcellus, it took a dose of 2 mg/kg to reach the 50% effect level (ED50). Besides, the values for the inhibition in vivo at 10 mg/kg in the data set on Monkey [6] and with Monkey [7] were 55.2% and 82.1%, respectively. Moreover, the inhibition in data set [1] was 9%; in data set [2] it was 8%; in data set [3], 7%; in data set [4], 21%. In addition, the IC50 against Phosphodiesterase 4 is 0.44 µM. The EC50 in the data set on U-937 came out at 0.33 µM.

Regarding `CCc1nn(C2CCCC2)c2c1CCN(c1ccccc1)C2=O`, the IC50 against Phosphodiesterase 4 amounted to 0.16 µM. The compound also gave an EC50 in the data set on U-937 of 0.07 µM.

`CCc1nn(-c2ccc(F)cc2)c2c1CCN(c1ccc(OC)cc1)C2=O` showed a 50% inhibitory concentration (IC50) at Phosphodiesterase 4 of 6.04 µM. The half-maximal effective concentration (EC50) with U-937 is 6.25 µM.

The compound `COc1ccc([C@]2(C#N)CC[C@@H](C(=O)O)CC2)cc1OC1CCCC1` [CILOMILAST] yielded a concentration giving a half-maximal response (EC50) with U-937 of 3.63 µM.

In the case of `COc1ccc(N2CCc3c(C)nn(-c4ccc(F)cc4)c3C2=O)cc1`, the half-inhibitory concentration (IC50) against Phosphodiesterase 4 is 15.7 µM.

Regarding `COc1ccc(C2CNC(=O)C2)cc1OC1CCCC1` (stereo not drawn) [ROLIPRAM], the concentration in [5] was 0.91 µM. The same compound returned a 50% effective dose (ED50) in the data set with Cavia porcellus of 0.6 mg/kg. Besides, the inhibition in vivo at 10 mg/kg turned out to be 49.4% in the data set on Monkey [6], 84% with Monkey [8] and 33.4% in the data set on Monkey [9]. The compound further registered an EC50 in the data set on U-937 of 1.23 µM.

In turn, `CCc1nn(C2CCCCC2)c2c1CCN(c1cccc(OC)c1)C2=O` came in with a half-maximal inhibitory concentration (IC50) on Phosphodiesterase 4 of 0.048 µM. Further, in the data set on U-937, the response was half-maximal at 0.98 µM (EC50).

At Phosphodiesterase 4, `CCc1nn(C2CCCC2)c2c1CCN(c1ccsc1)C2=O` returned a concentration for half-maximal inhibition (IC50) of 0.66 µM. This compound also showed a concentration for a half-maximal effect (EC50) in the data set with U-937 of 0.036 µM.

Regarding `CCc1nn(C2CCS(=O)(=O)C2)c2c1CCN(c1cccc(OC)c1)C2=O` (stereo not drawn), at Phosphodiesterase 4, the IC50 was 0.46 µM. In the data set on U-937, the half-maximal effective concentration (EC50) amounted to 5.27 µM.

In turn, `COc1ccc([C@H](Cc2ccncc2)c2ccccc2)cc1OC1CCCC1` [CDP840] yielded a concentration for half-maximal inhibition (IC50) against Phosphodiesterase 4 of 0.67 µM. A half-maximal effect with U-937 (EC50) was put at 0.29 µM.

Regarding `CCc1nn(C2CCCC2)c2c1CCN(c1cccnc1)C2=O`, the IC50 at Phosphodiesterase 4 stood at 0.16 µM. In the data set with U-937, the 50% effective concentration (EC50) came to 0.017 µM.

As for `CCc1nn(C2CCCC2)c2c1CCN(c1ccccn1)C2=O`, the IC50 at Phosphodiesterase 4 was determined as 1.64 µM.

With `CCc1nn(C2CCCC2)c2c1CCN(Cc1ccccc1)C2=O`, the IC50 at Phosphodiesterase 4 came to 0.42 µM. This compound registered a 50% effective concentration (EC50) in the data set on U-937 of 0.036 µM.

Compound `CCc1nn(C2CCC2)c2c1CCN(c1cccc(OC)c1)C2=O` had a 50% inhibitory concentration (IC50) at Phosphodiesterase 4 of 0.15 µM. This compound showed a 50% effective concentration (EC50) in the data set with U-937 of 0.52 µM.

For the compound `CCc1nn(C2CCCC2)c2c1CCN(c1cccs1)C2=O`, the IC50 on Phosphodiesterase 4 was found to be 0.063 µM. The same compound came in with an EC50 in the data set on U-937 of 0.001 µM.

The values above are taken from ChEMBL document CHEMBL1131576, “7-Oxo-4,5,6,7-tetrahydro-1H-pyrazolo[3,4-c]pyridines as novel inhibitors of human eosinophil phosphodiesterase” (J Med Chem, 1998).
